Results reported in patent US11564928B1, “Cannabinoid receptor type 2 (CB2) modulators and uses thereof” (Teon Therapeutics, Inc., priority 2020, dated 2023).
Where two headings read alike, the source gives them in different places.

What was measured:
[1] = target: T1, human CB2 receptor (Homo sapiens (Human), UniProt P34972); experiment: CB2 receptor cAMP assay (DiscoverX HitHunter cAMP XS+); assay type: cell-based; settings: for Emax: CHO-K1, read-out: Max Stimulation %
Method: cAMP Hunter CHO-K-1 cell lines expressing human CB2 receptor (Eurofins) were expanded from freezer stocks according to standard procedures. Cells were seeded in a total volume of 20 μL into white walled, 384-well microplates and incubated at 37° C. for the appropriate time prior to testing. cAMP modulation in agonist, inverse agonist or antagonist format was determined using the DiscoverX HitHunter cAMP XS+ assay (Eurofins). For agonist determination, cells were incubated with sample in the presence of EC80 forskolin to induce response. Media was aspirated from cells and replaced with 15 μL 2:1 HBSS/10 mM Hepes: cAMP XS+Ab reagent. Intermediate dilution of sample stocks was performed to generate 4× sample in assay buffer containing 4× EC80 forskolin. 5 μL of 4× sample was added to cells and incubated at 37° C. or room temperature for 30 or 60 minutes. Final assay vehicle concentration was 1%. For inverse agonist determination, cells were preincubated with sample in the presence of EC20 forskolin. Media was aspirated from cells and replaced with 15 μL, 2:1 HBSS/10 mM Hepes: cAMP XS+Ab reagent. Intermediate dilution of sample stocks was performed to generate 4× sample in assay buffer containing 4× EC20 forskolin. 5 μL of 4× sample was added to cells and incubated at 37° C. or room temperature for 30 or 60 minutes. Final assay vehicle concentration was 1%. For antagonist determination, cells were pre-incubated with sample followed by agonist challenge at the EC80 concentration. Media was aspirated from cells and replaced with 10 μL 1:1 HBSS/Hepes: cAMP XS+Ab reagent. 5 μL of 4× compound was added to the cells and incubated at 37° C. or room temperature for 30 minutes. 5 μL of 4× EC80 agonist was added to cells and incubated at 37° C. or room temperature for 30 or 60 minutes. EC80 forksolin was included. After appropriate compound incubation, assay signal was generated through incubation with 20 μL cAMP XS+ED/CL lysis cocktail for one hour followed by incubation with 20 μL, cAMP XS+EA reagent for three hours at room temperature. Microplates were read following signal generation with a PerkinElmer Envision instrument for chemiluminescent signal detection. Compound activity was analyzed using CBIS data analysis suite (ChemInnovation, CA). For agonist mode assay, percentage activity is calculated using the following formula: % Activity=100%×(1−(mean RLU of test sample−mean RLU of MAX control)/(mean RLU of vehicle control−mean RLU of MAX control)). For inverse agonist mode assay, percentage activity is calculated using the following formula: % Inverse Agonist Activity=100%×((mean RLU of test sample−mean RLU of EC20 forskolin)/(mean RLU of forskolin positive control−mean RLU of EC20 control)). For antagonist mode assay, percentage inhibition is calculated using the following formula: % Inhibition=100%×(mean RLU of test sample−mean RLU of EC80 control)/(mean RLU of forskolin positive control−mean RLU of EC80 control). Data are analyzed and IC50 is calculated using GraphPad Prism 5 and the model “log(inhibitor) vs. response—Variable slope”.

[2] = target: human recombinant CB1R (Homo sapiens (Human), UniProt P21554); experiment: CB1 receptor binding assay ([3H]CP-55,940 displacement, HEK-293 membranes); settings: membranes of HEK-293 cells with human recombinant CB1R, [3H]CP-55,940, read-out: CB1 IC50
Sequence of human recombinant CB1R (P21554 whole entry): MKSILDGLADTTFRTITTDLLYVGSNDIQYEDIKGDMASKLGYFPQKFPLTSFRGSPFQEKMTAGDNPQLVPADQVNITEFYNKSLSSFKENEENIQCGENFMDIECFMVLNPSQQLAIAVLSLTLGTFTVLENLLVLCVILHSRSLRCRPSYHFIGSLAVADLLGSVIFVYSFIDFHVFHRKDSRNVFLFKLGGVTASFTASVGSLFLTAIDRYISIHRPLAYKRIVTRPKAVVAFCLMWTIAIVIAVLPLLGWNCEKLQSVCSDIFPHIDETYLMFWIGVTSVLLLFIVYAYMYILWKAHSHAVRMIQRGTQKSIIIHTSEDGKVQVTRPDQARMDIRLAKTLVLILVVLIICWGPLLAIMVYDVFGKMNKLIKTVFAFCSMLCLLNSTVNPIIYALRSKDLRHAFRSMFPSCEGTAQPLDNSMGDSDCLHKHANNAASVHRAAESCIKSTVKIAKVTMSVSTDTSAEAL
Method in brief: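 Membranes from HEK-293 cells expressing human recombinant CB1R or CB2R were incubated with [3H]CP-55,940 and compound for 120 min at 37 °C in duplicate. The CB2R incubation buffer was 50 mM Tris-HCl, 5 mM MgCl2, 1 mM CaCl2, 0.2% BSA, pH 7.4. Bound radioactivity was filtered and counted, and IC50 was converted to Ki by Cheng–Prusoff.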

[3] = target: T1, human CB2 receptor; experiment: CB2 receptor binding assay ([3H]CP-55,940 displacement, HEK-293 membranes); settings: membranes of HEK-293 cells with human recombinant CB2R, [3H]CP-55,940, read-out: CB2 IC50

T1 sequence (P34972 whole entry): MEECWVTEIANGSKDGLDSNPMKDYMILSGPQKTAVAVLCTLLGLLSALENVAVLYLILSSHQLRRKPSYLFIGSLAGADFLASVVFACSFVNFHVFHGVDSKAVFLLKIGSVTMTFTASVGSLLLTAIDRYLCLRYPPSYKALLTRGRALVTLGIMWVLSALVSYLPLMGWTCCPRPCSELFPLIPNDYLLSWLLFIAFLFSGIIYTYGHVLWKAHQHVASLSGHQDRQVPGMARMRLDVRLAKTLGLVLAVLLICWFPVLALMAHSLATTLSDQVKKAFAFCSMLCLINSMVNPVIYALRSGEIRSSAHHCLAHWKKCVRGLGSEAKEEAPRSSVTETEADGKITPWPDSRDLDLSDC

| SMILES | IC50 [1] [nM] | Emax [1] [%] | IC50 ([2]; class symbols) [nM] | IC50 ([3]; class symbols) [nM] | IC50 ([1]; cAMP Hunter CHO-K-1 cells expressing human CB2 receptor, read-out: cAMP IC50) [nM] | IC50 [2] [nM] | IC50 [3] [nM] |
| --- | --- | --- | --- | --- | --- | --- | --- |
| CC1CCC(NC(=O)c2cc3cc(-c4ccccn4)cnc3n(CCN3CCOCC3)c2=O)CC1 (centres unmarked) [Compound 62, N-(4-methylcyclohexyl)-1-(2-morpholinoethyl)-2-oxo-6-(pyridin-2-yl)-1,2-dihydro-1,8-naphthyridine-3-carboxamide] | 13 | 33 | > 1000 | < 100 |  |  |  |
| CC1CCC(NC(=O)c2cc3cc(-c4ncccn4)cnc3n(CCN3CCOCC3)c2=O)CC1 (centres unmarked) [Compound 63, N-(4-methylcyclohexyl)-1-(2-morpholinoethyl)-2-oxo-6-(pyrimidin-2-yl)-1,2-dihydro-1,8-naphthyridine-3-carboxamide] |  |  | > 1000 | < 100 | > 1000 |  |  |
| N#Cc1ccc(-c2cnc3c(c2)cc(C(=O)NC2CC4(CCC4)C2)c(=O)n3Cc2ccc(F)cc2)nc1 [Compound 69, 6-(5-cyanopyridin-2-yl)-1-(4-fluorobenzyl)-2-oxo-N-(spiro[3.3]heptan-2-yl)-1,2-dihydro-1,8-naphthyridine-3-carboxamide] | 21 | 79 | > 1000 | < 100 |  |  |  |
| O=C(NC12CC(C1)C2)c1cc2cc(Br)cnc2n(Cc2ccc(F)cc2)c1=O [Compound 82, N-(bicyclo[1.1.1]pentan-1-yl)-6-bromo-1-(4-fluorobenzyl)-2-oxo-1,2-dihydro-1,8-naphthyridine-3-carboxamide] | 1 | 86 | > 1000 | < 100 |  |  |  |
| O=C(NC12CC(C1)C2)c1cc2cc(C3CC3)cnc2n(Cc2ccc(F)cc2)c1=O [Compound 83, N-(bicyclo[1.1.1]pentan-1-yl)-6-cyclopropyl-1-(4-fluorobenzyl)-2-oxo-1,2-dihydro-1,8-naphthyridine-3-carboxamide] | 5 | 93 | > 1000 | < 100 |  |  |  |
| CC(C)c1cnc2c(c1)cc(C(=O)N[C@H](C)c1ccc(C#N)cc1)c(=O)n2Cc1ccc(F)cc1 [Compound 85, (R)—N-(1-(4-cyanophenyl)ethyl)-1-(4-fluorobenzyl)-6-isopropyl-2-oxo-1,2-dihydro-1,8-naphthyridine-3-carboxamide] | 0.5 | 93 |  |  |  | 605 | 7.9 |
| CC(C)c1cnc2c(c1)cc(C(=O)N[C@H](C)c1ccc(F)cc1)c(=O)n2Cc1ccc(F)cc1 [Compound 89, (R)-1-(4-fluorobenzyl)-N-(1-(4-fluorophenyl)ethyl)-6-isopropyl-2-oxo-1,2-dihydro-1,8-naphthyridine-3-carboxamide] | 7 | 92 | > 1000 | < 100 |  |  |  |
| C[C@@H](NC(=O)c1cc2cc(C3CC3)cnc2n(Cc2ccc(F)cc2)c1=O)c1ccc(F)cc1 [Compound 94, (R)-6-cyclopropyl-1-(4-fluorobenzyl)-N-(1-(4-fluorophenyl)ethyl)-2-oxo-1,2-dihydro-1,8-naphthyridine-3-carboxamide] | 0.8 | 55 |  |  |  | 3260 | 4.1 |
| C[C@@H](NC(=O)c1cc2cc(C3CC3)cnc2n(Cc2ccc(F)cc2)c1=O)c1ccc(C#N)cc1 [Compound 95, (R)—N-(1-(4-cyanophenyl)ethyl)-6-cyclopropyl-1-(4-fluorobenzyl)-2-oxo-1,2-dihydro-1,8-naphthyridine-3-carboxamide] | 2 | 60 |  |  |  | 895 | 3.2 |
| O=C(NC1CC2(CCC2)C1)c1cc2cc(Br)cnc2n(Cc2ccc(F)cn2)c1=O [Compound 99, 6-bromo-1-((5-fluoropyridin-2-yl)methyl)-2-oxo-N-(spiro[3.3]heptan-2-yl)-1,2-dihydro-1,8-naphthyridine-3-carboxamide] | 53 | 89 |  |  |  | > 10000 | 12 |
| CC(C)c1cnc2c(c1)cc(C(=O)N[C@H](C)c1ccc(F)cc1)c(=O)n2Cc1ccc(F)cn1 [Compound 100, (R)—N-(1-(4-fluorophenyl)ethyl)-1-((5-fluoropyridin-2-yl)methyl)-6-isopropyl-2-oxo-1,2-dihydro-1,8-naphthyridine-3-carboxamide] | 2 | 82 |  |  |  | 2880 | 4 |
| C[C@@H](NC(=O)c1cc2cc(C3COC3)cnc2n(Cc2ccc(F)cc2)c1=O)c1ccc(C#N)cc1 [Compound 101, (R)—N-(1-(4-cyanophenyl)ethyl)-1-(4-fluorobenzyl)-6-(oxetan-3-yl)-2-oxo-1,2-dihydro-1,8-naphthyridine-3-carboxamide] | 21 | 71 |  |  |  | 2110 | 7.6 |
| O=C(NC1CC2(CCC2)C1)c1cc2cc(C3COC3)cnc2n(Cc2ccc(F)cc2)c1=O [Compound 102, 1-(4-fluorobenzyl)-6-(oxetan-3-yl)-2-oxo-N-(spiro[3.3]heptan-2-yl)-1,2-dihydro-1,8-naphthyridine-3-carboxamide] | 3 | 79 |  |  |  | 1610 | 2.3 |
| C[C@@H](NC(=O)c1cc2cc(C3COC3)cnc2n(Cc2ccc(F)cc2)c1=O)c1ccc(F)cc1 [Compound 103, (R)-1-(4-fluorobenzyl)-N-(1-(4-fluorophenyl)ethyl)-6-(oxetan-3-yl)-2-oxo-1,2-dihydro-1,8-naphthyridine-3-carboxamide] | 9 | 91 |  |  |  | 2900 | 3 |
| COc1ccc(-c2cnc3c(c2)cc(C(=O)NCc2ccc(F)cc2)c(=O)n3CCN2CCOCC2)cc1 [Compound 105, N-(4-fluorobenzyl)-6-(4-methoxyphenyl)-1-(2-morpholinoethyl)-2-oxo-1,2-dihydro-1,8-naphthyridine-3-carboxamide] | 28 | 116 |  |  |  | > 10000 | 14 |
